For orientation: EC50 means the midpoint of the concentration-response curve.

Experiment [1] in a line: Inhibition of reverse transcriptase Y181C mutant in HIV-1 3B infected in human MT4 cells assessed as inhibition of viral replication after 5 days by cell titer glo based luciferase reporter gene assay.
Experiment [2] can be described thus: Inhibition of HIV-1 3B reverse transcriptase K103N mutant infected in human MT4 cells assessed as inhibition of viral replication after 5 days by cell titer glo based luciferase reporter gene assay. Background: In ATP-based viability assays light output follows the ATP content of the culture.

`COc1cc(F)c(C(=O)c2ccnc(Nc3ccc(C#N)cc3)n2)c(F)c1`: the EC50 in experiment [1] was > 500 nM; in experiment [2] it was 347 nM.

For the origin of these results see BindingDB's records for doi:10.1016/j.ejmech.2016.06.026 (Czech Academy of Sciences, 2016).
